ChEMBL document CHEMBL1667793, “Synthesis and DNA photocleavage by a pyridine-linked bis-acridine chromophore in the presence of copper(II): ionic strength effects” (Bioorg Med Chem Lett, 2011)
Calls of active or inactive are those of the source. The rule behind the calls is not given here.

What was measured:
Format in all cases: nucleic-acid assay
Nucleic Acid [1] = experiment: Induction of Escherichia coli pUC19 DNA cleavage assessed as conversion of supercoiled DNA to nicked and linear form of DNA at 2 to 20 uM irradiated for 50 mins measured after 60 mins by ethidium bromide staining in presence of 1 mol equivalent of copper chloride
Nucleic Acid [2] = experiment: Induction of Escherichia coli pUC19 DNA cleavage assessed as conversion of supercoiled DNA to nicked and linear form of DNA at 2 to 50 uM after 60 mins by ethidium bromide staining
Nucleic Acid [3] = experiment: Inhibition of Escherichia coli pUC19 DNA photocleavage at 10 uM after 1 hr followed by irradiated for 60 mins by ethidium bromide staining in presence of 100 uM of sodium azide
Nucleic Acid [4] = experiment: Induction of Escherichia coli pUC19 DNA cleavage assessed as conversion of supercoiled DNA to nicked and linear form of DNA at 10 to 30 uM after 1 hr followed by irradiated for 60 mins by ethidium bromide staining in presence of 1 mol equivalent of copper chloride and 150 mM sodium chloride and 240 mM of potassium chloride
Nucleic Acid [5] = experiment: Inhibition of Escherichia coli pUC19 DNA photocleavage assessed as conversion of supercoiled DNA to linear form of DNA at 10 uM after 1 hr followed by irradiated for 60 mins by ethidium bromide staining in presence of 100 uM of sodium azide and 1 mol equivalent of copper chloride
Nucleic Acid [6] = experiment: Inhibition of Escherichia coli pUC19 DNA photocleavage assessed as conversion of supercoiled DNA to linear form of DNA at 10 uM after 1 hr followed by irradiated for 60 mins by ethidium bromide staining in presence of 100 uM of sodium benzoate
Nucleic Acid [7] = experiment: Inhibition of Escherichia coli pUC19 DNA photocleavage assessed as conversion of supercoiled DNA to nicked form of DNA at 10 uM after 1 hr followed by irradiated for 60 mins by ethidium bromide staining in presence of 100 uM of sodium benzoate and 1 mol equivalent of copper chloride
Nucleic Acid [8] = experiment: Inhibition of Escherichia coli pUC19 DNA photocleavage assessed as conversion of supercoiled DNA to linear form of DNA at 10 uM after 1 hr followed by irradiated for 60 mins by ethidium bromide staining in presence of 100 uM of sodium azide
Nucleic Acid [9] = experiment: Inhibition of Escherichia coli pUC19 DNA photocleavage at 10 uM after 1 hr followed by irradiated for 60 mins by ethidium bromide staining in presence of 100 uM of sodium azide and 1 mol equivalent of copper chloride
Calf thymus DNA [10] = experiment: Binding affinity to calf thymus DNA at 10 uM by UV-visible spectra analysis in presence of 1 mol equivalent of copper chloride and 260 mM of potassium chloride; conditions: Bos taurus
Nucleic Acid [11] = experiment: Induction of Escherichia coli pUC19 DNA cleavage assessed as conversion of supercoiled DNA to nicked and linear form of DNA at 10 to 30 uM after 1 hr followed by irradiated for 60 mins by ethidium bromide staining in presence of 1 mol equivalent of copper chloride and 240 mM of potassium chloride
Nucleic Acid [12] = experiment: Inhibition of Escherichia coli pUC19 DNA photocleavage assessed as conversion of supercoiled DNA to nicked form of DNA at 10 uM after 1 hr followed by irradiated for 60 mins by ethidium bromide staining in presence of 100 uM of sodium azide
Nucleic Acid [13] = experiment: Inhibition of Escherichia coli pUC19 DNA photocleavage assessed as conversion of supercoiled DNA to linear form of DNA at 10 uM after 1 hr followed by irradiated for 60 mins by ethidium bromide staining in presence of 100 uM of sodium benzoate and 1 mol equivalent of copper chloride
Nucleic Acid [14] = experiment: Inhibition of Escherichia coli pUC19 DNA photocleavage assessed as conversion of supercoiled DNA to nicked form of DNA at 10 uM after 1 hr followed by irradiated for 60 mins by ethidium bromide staining in presence of 100 uM of sodium benzoate
Nucleic Acid [15] = experiment: Inhibition of Escherichia coli pUC19 DNA photocleavage at 10 uM after 1 hr followed by irradiated for 60 mins by ethidium bromide staining in presence of 100 uM of sodium benzoate and 1 mol equivalent of copper chloride
Calf thymus DNA [16] = experiment: Binding affinity to calf thymus DNA at 10 uM assessed as change in melting temperature in presence of copper; conditions: Bos taurus
Nucleic Acid [17] = experiment: Induction of Escherichia coli pUC19 DNA cleavage assessed as conversion of supercoiled DNA to nicked and linear form of DNA at 10 uM irradiated for 50 mins measured after 60 mins by ethidium bromide staining
Calf thymus DNA [18] = experiment: Binding affinity to calf thymus DNA at 10 uM assessed as change in melting temperature; conditions: Bos taurus
Nucleic Acid [19] = experiment: Inhibition of Escherichia coli pUC19 DNA photocleavage assessed as conversion of supercoiled DNA to nicked form of DNA at 10 uM after 1 hr followed by irradiated for 60 mins by ethidium bromide staining in presence of 100 uM of sodium azide and 1 mol equivalent of copper chloride
Nucleic Acid [20] = experiment: Inhibition of Escherichia coli pUC19 DNA photocleavage at 10 uM after 1 hr followed by irradiated for 60 mins by ethidium bromide staining in presence of 100 uM of sodium benzoate
Nucleic Acid [21] = experiment: Induction of Escherichia coli pUC19 DNA cleavage assessed as conversion of supercoiled DNA to nicked and linear form of DNA at 10 to 30 uM after 1 hr followed by irradiated for 60 mins by ethidium bromide staining in presence of 1 mol equivalent of copper chloride and 150 mM sodium chloride

- Activity (Nucleic Acid [1]): inactive
- Activity (Nucleic Acid [2]): Active
- inhibition (Nucleic Acid [3]): 34%
- Activity (Nucleic Acid [4]): Active
- inhibition (Nucleic Acid [5]): 82%
- inhibition (Nucleic Acid [6]): 91%
- inhibition (Nucleic Acid [7]): -7%
- inhibition (Nucleic Acid [8]): 80%
- inhibition (Nucleic Acid [9]): 5%
- Activity (Calf thymus DNA [10]): Active
- Activity (Nucleic Acid [11]): Active
- inhibition (Nucleic Acid [12]): 29%
- inhibition (Nucleic Acid [13]): 88%
- inhibition (Nucleic Acid [14]): -10%
- inhibition (Nucleic Acid [15]): 0%
- Tm (Calf thymus DNA [16]): 80 °C
- Activity (Nucleic Acid [17]): Active
- Tm (Calf thymus DNA [18]): 79 °C
- inhibition (Nucleic Acid [19]): -1%
- inhibition (Nucleic Acid [20]): 0%
- Activity (Nucleic Acid [21]): Active
SMILES: Nc1ccc2cc3ccc(NCc4cccc(CNc5ccc6cc7ccc(N)cc7nc6c5)n4)cc3nc2c1
